Measured values reported in the NIST ThermoML archive (doi:10.1021/je800193a).

Assay: excess molar enthalpy (molar enthalpy of mixing); xn = mol fraction of the nth substance listed
Conditions: 101.3 kPa, Liquid, Flow calorimetry

CC(=O)c1ccccc1 [acetophenone] + CCCCCCC
excess molar enthalpy [kcal/mol]
Conditions | 298.2 K | 313.2 K | 328.2 K | 338.2 K | 348.2 K
x1 = 0.0999 | 0.173 | 0.177 | 0.183 | 0.184 | 0.184
x1 = 0.2002 | 0.271 | 0.285 | 0.298 | 0.301 | 0.302
x1 = 0.3005 | 0.313 | 0.341 | 0.361 | 0.369 | 0.369
x1 = 0.3498 | 0.323 | 0.354 | 0.378 | 0.388 | 0.389
x1 = 0.4007 | 0.326 | 0.362 | 0.388 | 0.398 | 0.4
x1 = 0.4504 | 0.327 | 0.362 | 0.391 | 0.402 | 0.404
x1 = 0.5003 | 0.322 | 0.358 | 0.387 | 0.399 | 0.401
x1 = 0.5504 | 0.313 | 0.348 | 0.378 | 0.39 | 0.39
x1 = 0.6006 | 0.301 | 0.334 | 0.362 | 0.373 | 0.374
x1 = 0.6496 | 0.285 | 0.316 | 0.342 | 0.352 | 0.354
x1 = 0.6998 | 0.264 | 0.291 | 0.315 | 0.323 | 0.326
x1 = 0.8001 | 0.208 | 0.224 | 0.241 | 0.245 | 0.246
x1 = 0.8999 | 0.121 | 0.125 | 0.135 | 0.136 | 0.138

CC(=O)c1ccccc1 [acetophenone] + CCOC(C)=O
excess molar enthalpy [kcal/mol]
Conditions | 298.2 K | 313.2 K | 328.2 K
x1 = 0.1 | -0.00292 | -0.00284 | -0.0028
x1 = 0.2004 | -0.00509 | -0.00495 | -0.0049
x1 = 0.2999 | -0.0066 | -0.00636 | -0.00626
x1 = 0.3501 | -0.00707 | -0.00679 | -0.00674
x1 = 0.4002 | -0.00739 | -0.00703 | -0.00693
x1 = 0.4503 | -0.00755 | -0.00715 | -0.00698
x1 = 0.5002 | -0.00755 | -0.0071 | -0.00688
x1 = 0.5997 | -0.00717 | -0.00667 | -0.00638
x1 = 0.7005 | -0.00629 | -0.00574 | -0.0054
x1 = 0.8004 | -0.00483 | -0.0043 | -0.00392
x1 = 0.9003 | -0.00246 | -0.00234 | -0.00196

CC(=O)c1ccccc1 [acetophenone] + CCCCCO
excess molar enthalpy [kcal/mol]
Conditions | 298.2 K | 313.2 K | 328.2 K | 338.2 K | 348.2 K
x1 = 0.1003 | 0.151 | 0.174 | 0.186 | 0.19 | 0.192
x1 = 0.1998 | 0.24 | 0.283 | 0.311 | 0.324 | 0.328
x1 = 0.2998 | 0.298 | 0.356 | 0.394 | 0.412 | 0.417
x1 = 0.3497 | 0.316 | 0.378 | 0.421 | 0.44 | 0.447
x1 = 0.4001 | 0.33 | 0.396 | 0.441 | 0.461 | 0.468
x1 = 0.4496 | 0.338 | 0.407 | 0.453 | 0.473 | 0.48
x1 = 0.4994 | 0.343 | 0.411 | 0.457 | 0.477 | 0.484
x1 = 0.5497 | 0.342 | 0.41 | 0.453 | 0.473 | 0.478
x1 = 0.6004 | 0.336 | 0.402 | 0.442 | 0.459 | 0.464
x1 = 0.6501 | 0.325 | 0.386 | 0.422 | 0.438 | 0.441
x1 = 0.7003 | 0.307 | 0.363 | 0.393 | 0.408 | 0.41
x1 = 0.8004 | 0.252 | 0.291 | 0.306 | 0.315 | 0.318
x1 = 0.8995 | 0.156 | 0.174 | 0.177 | 0.182 | 0.184

CC(=O)c1ccccc1 [acetophenone] + CCCCCC
excess molar enthalpy [kcal/mol]
Conditions | 298.2 K | 313.2 K | 328.2 K
x1 = 0.0997 | 0.169 | 0.173 | 0.175
x1 = 0.2 | 0.263 | 0.277 | 0.285
x1 = 0.2994 | 0.306 | 0.329 | 0.342
x1 = 0.3503 | 0.317 | 0.343 | 0.357
x1 = 0.4006 | 0.321 | 0.349 | 0.365
x1 = 0.4503 | 0.321 | 0.35 | 0.367
x1 = 0.4995 | 0.316 | 0.346 | 0.363
x1 = 0.5494 | 0.308 | 0.336 | 0.353
x1 = 0.5999 | 0.295 | 0.319 | 0.337
x1 = 0.6499 | 0.278 | 0.293 | 0.313
x1 = 0.7005 | 0.257 | 0.265 | 0.277
x1 = 0.8 | 0.2 | 0.203 | 0.207
x1 = 0.8995 | 0.113 | 0.115 | 0.117
